A short description of the data set: stability of the drug substance in water. The class given is physicochemical.

Turning to `CN1CCN(c2nc(C3=C(c4c[nH]c5ccccc45)C(=O)NC3=O)c3ccccc3n2)CC1` [3-(1.H.-indol-3-yl)-4-[2-(4-methyl-piperazin-1-yl)-quinazolin-4-yl]-pyrrole-2,5-dione], the water sensitivity entry (may convert to free base hydrate, solvate or amorphous form in the presence of ethanol and/or water) was “water sensitive”. The degradation in water entry (water, renders aqueous granulation difficult) was “high degradation”.

(Values after US20100316713A1, “PHARMACEUTICAL COMPOSITION” (priority 2007, published 2010).)
